From US6756382B2, “Amide substituted imidazoquinolines” (3M Innovative Properties Company, priority 1999, dated 2004) come the findings set out here.

In data set [1] the test system is interferon (α). The data set is described as follows: Cytokine induction in human cells: interferon secreted by PBMCs, ELISA. Type of data set: cell-based. Conditions: PBMC, incubated 18 to 24 hours, interferon determined by ELISA, read-out: Lowest Effective Concentration (μM) Interferon. An outline of the steps: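 Human donor PBMCs at 1.5-2×10^6 cells/mL final in RPMI with 10% FBS, exposed to serially diluted compound (≤1% DMSO) for 18–24 h at 37 °C, 5% CO2. Supernatant interferon (α) measured by ELISA; value is lowest concentration inducing interferon.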
For orientation: ELISA stands for enzyme-linked immunosorbent assay.

In data set [2] the test system is tumor necrosis factor (α). The data set is described as follows: Cytokine induction in human cells: tumor necrosis factor (α) secreted by PBMCs, ELISA. Type of data set: cell-based. Conditions: PBMC, incubated 18 to 24 hours, TNF determined by ELISA, read-out: Lowest Effective Concentration (μM) Tumor Necrosis Factor. An outline of the steps: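 Human donor PBMCs at final 1.5-2×10^6 cells/mL in RPMI with 10% FBS incubated 18 to 24 h at 37° C. with serially diluted compound, DMSO at most 1% final. Supernatant TNF-α measured by ELISA; value is the lowest concentration inducing TNF.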

`Nc1nc2ccccc2c2c1ncn2CCCCNC(=O)[C@H]1C[C@@H]1c1ccccc1` (relative stereo) [Example 37, N^1-[4-(4-Amino-1H-imidazo[4,5-c]quinolin-1-yl)butyl]-(trans)-2-phenylcyclopropane-1-carboxamide] came in with a melting point of 77 °C. Moreover, the minimal effective concentration in data set [1] worked out at 0.37 µM. Also, the minimal effective concentration in data set [2] is greater than 30 µM.
Compound `Nc1nc2ccccc2c2c1ncn2CCCCNC(=O)c1ccccc1` [Example 1, N^1-[4-(4-Amino-1H-imidazo[4,5-c]quinolin-1-yl)butyl]benzamide] had a melting point of 210 to 212 °C. Besides, the minimal effective concentration in data set [1] was determined as 0.37 µM. In data set [2], the minimal effective concentration came to 10 µM.
With `CCCc1nc2c(N)nc3ccccc3c2n1CCCCNC(=O)c1ccccc1` [Example 3, N^1-[4-(4-Amino-2-propyl-1H-imidazo[4,5-c]quinolin-1-yl)butyl]benzamide], the melting point fell in the range of 173 to 174 °C. The minimal effective concentration in data set [1] came to 0.37 µM. In addition, the minimal effective concentration in data set [2] was 1.11 µM.
Taken in the same sequence, the figures for `Nc1nc2ccccc2c2c1ncn2CCCCNC(=O)c1ccc(CCl)cc1` [Example 7, N^1-[4-(4-Amino-1H-imidazo[4,5-c]quinolin-1-yl)butyl]-4-(chloromethyl)benzamide] were 240 to 300 °C (dec.), 1.11 µM and greater than 30 µM.
Compound `Nc1nc2ccccc2c2c1ncn2CCCCNC(=O)c1ccc(Cn2c(N3CCCC3)nc3ccccc32)cc1` [Example 8, N^1-[4-(4-Amino-1H-imidazo[4,5-c]quinolin-1-yl)butyl]-4-[(2-tetrahydro-1H -1-pyrrolyl-1H-benzo[d]imidazol-1-yl)methyl]benzamide] had a melting point of 150 to 153 °C. Further, in data set [1], the minimal effective concentration came out at 0.04 µM. Moreover, the minimal effective concentration in data set [2] was greater than 30 µM.
`Cc1nc2c(N)nc3ccccc3c2n1CCCCCNC(=O)c1ccccc1` [Example 9, N^1-[5-(4-Amino-2-methyl-1H-imidazo[4,5-c]quinolin-1-yl)pentyl]benzamide] gave a melting point of 110 to 120 °C. Moreover, the minimal effective concentration in data set [1] amounted to 0.37 µM. Moreover, the minimal effective concentration in data set [2] was 3.33 µM.
Taken in the same sequence, the figures for `Nc1nc2ccccc2c2c1ncn2CCCCNC(=O)c1ccc(N2CCOCC2)nc1` [Example 12, N^3-[4-(4-Amino-1H-imidazo[4,5-c]quinolin-1-yl)butyl]-6-morpholinonicotinamide] were 160 to 170 °C (dec.), 3.33 µM and greater than 30 µM.
Taken in the same sequence, the figures for `Nc1nc2ccccc2c2c1ncn2CCNC(=O)c1ccccc1` [Example 13, N^1-[2-(4-Amino-1H-imidazo[4,5-c]quinolin-1-yl)ethyl]benzamide] were 295 °C, 1.11 µM and 3.33 µM.
Taken in the same sequence, the figures for `Nc1nc2ccccc2c2c1ncn2CCCCNC(=O)c1ccccc1Oc1ccccc1` [Example 14, N^1-[4-(4-Amino-1H-imidazo[4,5-c]quinolin-1-yl)butyl]-2-phenoxybenzamide] were 93 to 94 °C, 3.33 µM and greater than 30 µM.
Consider `Nc1nc2ccccc2c2c1ncn2CCCCNC(=O)c1cccc(C(=O)c2ccccc2)c1` [Example 15, N^1-[4-(4-Amino-1H-imidazo[4,5-c]quinolin-1-yl)butyl]-3-benzoylbenzamide], for which the melting point is 103 to 105 °C. In addition, in data set [1], the minimal effective concentration worked out at 3.33 µM. In addition, the minimal effective concentration in data set [2] is greater than 30 µM.
Taken in the same sequence, the figures for `Nc1nc2ccccc2c2c1ncn2CCCCNC(=O)CCc1ccccc1` [Example 16, N^1-[4-(4-Amino-1H-imidazo[4,5-c]quinolin-1-yl)butyl]-3-phenylpropanamide] were 148 to 150 °C, 1.11 µM and 30 µM.
With `Nc1nc2ccccc2c2c1ncn2CCNC(=O)CCc1ccccc1` [Example 17, N^1-[2-(4-Amino-1H-imidazo[4,5-c]quinolin-1-yl)ethyl]-3-phenylpropanamide], the melting point lay within 254 to 256 °C. In addition, in data set [1], the minimal effective concentration came out at 3.33 µM. The minimal effective concentration in data set [2] turned out to be 10 µM.
The corresponding values for `Nc1nc2ccccc2c2c1ncn2CCCCNC(=O)COc1ccc(C(=O)c2ccccc2)cc1` [Example 18, N^1-[4-(4-Amino-1H-imidazo[4,5-c]quinolin-1-yl)butyl]-2-(4-benzoylphenoxy)acetamide] are 73 to 98 °C, 3.33 µM and greater than 30 µM.
Taken in the same sequence, the figures for `Nc1nc2ccccc2c2c1ncn2CCCCNC(=O)CCCCOc1ccc2[nH]c(=O)[nH]c2c1` [Example 19, N-[4-Amino-1H-imidazo[4,5-c]quinolin-1-yl]butyl-5-[(2-oxo-2,3-dihydro-1H-benzo[d]imidazol-5-yl)oxy]pentamide] were 150 to 157 °C, 10 µM and greater than 30 µM.
The corresponding values for `Nc1nc2ccccc2c2c1ncn2CCCCNC(=O)c1ccc(C(=O)c2ccccc2)cc1` [Example 20, N^1-[4-(4-Amino-1H-imidazo[4,5-c]quinolin-1-yl)butyl]-4-benzoylbenzamide] are 159 to 161 °C, 3.33 µM and greater than 30 µM.
As to `Nc1nc2ccccc2c2c1ncn2CCCCNC(=O)c1ccc2ncccc2c1` [Example 21, N^6-[4-(4-Amino-1H-imidazo[4,5-c]quinolin-1-yl)butyl]-6-quinolinecarboxamide], the melting point was 122 to 127 °C. Further, the minimal effective concentration in data set [1] turned out to be 0.12 µM. In data set [2], the minimal effective concentration was 1.11 µM.
The corresponding values for `Cc1nc2c(N)nc3ccccc3c2n1CCCNC(=O)c1ccccc1` [Example 22, N^1-[3-(4-Amino-2-methyl-1H-imidazo[4,5-c]quinolin-1-yl)propyl]benzamide] are 230 to 231.4 °C, 0.37 µM and 10 µM.
The corresponding values for `Nc1nc2ccccc2c2c1ncn2CCCCCCNC(=O)c1ccccc1` [Example 23, N^1-[6-(4-Amino-1H-imidazo[4,5-c]quinolin-1-yl)hexyl]benzamide] are 146 to 155 °C, 1.11 µM and greater than 30 µM.
As for `COCCc1nc2c(N)nc3c(c2n1CCCNC(=O)c1ccccc1)CCCC3` [Example 195, N-{3-[4-amino-2-(2-methoxyethyl)-6,7,8,9-tetrahydro-1H-imidazo[4,5-c]quinolin-1-yl]propyl}benzamide], the melting point lay within 167.8 to 169.6 °C.
`CCc1nc2c(N)nc3ccccc3c2n1CCCCNC(=O)C1CCCC1` [Example 197, N-[4-(4-amino-2-ethyl-1H-imidazo[4,5-c]quinolin-1-yl)butyl]cyclopentanecarboxamide] had a melting point of 178.6 to 179.5 °C.
Same read-out and setting: the value for `Cc1nc2c(N)nc3ccccc3c2n1CCCCNC(=O)C1CCCCC1` [Example 198, N-[4-(4-amino-2-methyl-1H-imidazo[4,5-c]quinolin-1-yl)butyl]cyclohexanecarboxamide] was 191.6 to 192.6 °C; that for `CCc1nc2c(N)nc3ccccc3c2n1CCCCNC(=O)C(C)C` [Example 199, N-[4-(4-amino-2-ethyl-1H-imidazo[4,5-c]quinolin-1-yl)butyl]-2-methylpropanamide] was 155.4 to 156.3 °C; that for `CCCC(=O)NCCCCn1c(CC)nc2c(N)nc3ccccc3c21` [Example 200, N-[4-(4-amino-2-ethyl-1H-imidazo[4,5-c]quinolin-1-yl)butyl]butanamide] was 147.7 to 148.8 °C.
In the case of `Cc1nc2c(N)nc3ccccc3c2n1CCCCNC(=O)C1CCCC1` [Example 201, N-[4-(4-amino-2-methyl-1H-imidazo[4,5-c]quinolin-1-yl)butyl]cyclopentanecarboxamide], the melting point was in the range of 168.6 to 169.8 °C.
Still for that read-out and setting: with `Cc1nc2c(N)nc3ccccc3c2n1CCCCNC(=O)C(C)C` [Example 202, N-[4-(4-amino-2-methyl-1H-imidazo[4,5-c]quinolin-1-yl)butyl]-2-methylpropanamide] the figure was 159.7 to 160.7 °C; with `CCCC(=O)NCCCCn1c(C)nc2c(N)nc3ccccc3c21` [Example 203, N-[4-(4-amino-2-methyl-1H-imidazo[4,5-c]quinolin-1-yl)butyl]butanamide], 169.4 to 170.5 °C.
On the same count and under the same terms, with `Cc1nc2c(N)nc3ccccc3c2n1CCCNC(=O)C1CCCCC1` [Example 205, N-[3-(4-amino-2-methyl-1H-imidazo[4,5-c]quinolin-1-yl)propyl]cyclohexanecarboxamide] the figure was 234.4 to 235.4 °C; with `Cc1nc2c(N)nc3ccccc3c2n1CCCNC(=O)C(C)C` [Example 207, N-[3-(4-amino-2-methyl-1H-imidazo[4,5-c]quinolin-1-yl)propyl]-2-methylpropanamide], 239 to 240.1 °C; with `CCCC(=O)NCCCn1c(C)nc2c(N)nc3ccccc3c21` [Example 208, N-[3-(4-amino-2-methyl-1H-imidazo[4,5-c]quinolin-1-yl)propyl]butanamide], 221.8 to 223.3 °C.

As a reminder, the melting point is the temperature, or range, at which the solid turns liquid.
